ChEMBL document CHEMBL3627688, “Structure-based hybridization, synthesis and biological evaluation of novel tetracyclic heterocyclic azathioxanthone analogues as potential antitumor agents” (Eur J Med Chem, 2015)

Tests used:
[1] = system: K562; test: Growth inhibition of human K562 cells assessed as cell growth at 10 uM incubated for 48 hrs by sulforhodamine B assay; type: functional; conditions: K562, 48 h, read-out: Activity
[2] = system: SW-620; test: Growth inhibition of human SW620 cells assessed as cell growth at 10 uM incubated for 48 hrs by sulforhodamine B assay; type: functional; conditions: SW-620, 48 h, read-out: Activity
[3] = system: PC-3; test: Antiproliferative activity against human PC3 cells assessed as cell viability incubated for 72 hrs by MTT assay; type: functional, cell-based; conditions: PC-3, 72 h
[4] = system: T47D; test: Growth inhibition of human T47D cells assessed as cell growth at 10 uM incubated for 48 hrs by sulforhodamine B assay; type: functional; conditions: read-out: Activity
[5] = system: OVCAR-3; test: Growth inhibition of human OVCAR3 cells assessed as cell growth at 10 uM incubated for 48 hrs by sulforhodamine B assay; type: functional; conditions: OVCAR-3, 48 h, read-out: Activity
[6] = system: MDA-MB-435; test: Growth inhibition of human MDA-MB-435 cells assessed as cell growth at 10 uM incubated for 48 hrs by sulforhodamine B assay; type: functional; conditions: MDA-MB-435, 48 h, read-out: Activity
[7] = Growth inhibition of human BT549 cells assessed as cell growth at 10 uM incubated for 48 hrs by sulforhodamine B assay; type: functional; conditions: BT-549, 48 h, read-out: Activity
[8] = system: UACC-62; test: Growth inhibition of human UACC62 cells assessed as cell growth at 10 uM incubated for 48 hrs by sulforhodamine B assay; type: functional; conditions: UACC-62, 48 h, read-out: Activity
[9] = system: SF-268; test: Growth inhibition of human SF268 cells assessed as cell growth at 10 uM incubated for 48 hrs by sulforhodamine B assay; type: functional; conditions: SF-268, 48 h, read-out: Activity
[10] = system: NCI-H460; test: Growth inhibition of human NCI-H460 cells assessed as cell growth at 10 uM incubated for 48 hrs by sulforhodamine B assay; type: functional; conditions: NCI-H460, 48 h, read-out: Activity
[11] = system: SK-OV-3; test: Growth inhibition of human SKOV3 cells assessed as cell growth at 10 uM incubated for 48 hrs by sulforhodamine B assay; type: functional; conditions: SK-OV-3, 48 h, read-out: Activity
[12] = Growth inhibition of human LOXIMVI cells assessed as cell growth at 10 uM incubated for 48 hrs by sulforhodamine B assay; type: functional; conditions: LOX IMVI, read-out: Activity
[13] = system: A498; test: Growth inhibition of human A498 cells assessed as cell growth at 10 uM incubated for 48 hrs by sulforhodamine B assay; type: functional; conditions: A498, 48 h, read-out: Activity
[14] = system: HCT-116; test: Growth inhibition of human HCT116 cells assessed as cell growth at 10 uM incubated for 48 hrs by sulforhodamine B assay; type: functional; conditions: HCT-116, 48 h, read-out: Activity
[15] = Growth inhibition of human COLO205 cells assessed as cell growth at 10 uM incubated for 48 hrs by sulforhodamine B assay; type: functional; conditions: COLO 205, 48 h, read-out: Activity
[16] = system: 786-0; test: Growth inhibition of human 786-0 cells assessed as cell growth at 10 uM incubated for 48 hrs by sulforhodamine B assay; type: functional; conditions: 786-0, 48 h, read-out: Activity
[17] = system: MCF7; test: Growth inhibition of human MCF7 cells assessed as cell growth at 10 uM incubated for 48 hrs by sulforhodamine B assay; type: functional; conditions: MCF7, 48 h, read-out: Activity
[18] = Growth inhibition of human SF295 cells assessed as cell growth at 10 uM incubated for 48 hrs by sulforhodamine B assay; type: functional; conditions: SF-295, 48 h, read-out: Activity
[19] = system: KM12; test: Growth inhibition of human KM12 cells assessed as cell growth at 10 uM incubated for 48 hrs by sulforhodamine B assay; type: functional; conditions: KM12, 48 h, read-out: Activity
[20] = system: PC-3; test: Growth inhibition of human PC3 cells assessed as cell growth at 10 uM incubated for 48 hrs by sulforhodamine B assay; type: functional; conditions: PC-3, 48 h, read-out: Activity
[21] = system: SNB-75; test: Growth inhibition of human SNB75 cells assessed as cell growth at 10 uM incubated for 48 hrs by sulforhodamine B assay; type: functional; conditions: SNB-75, 48 h, read-out: Activity
[22] = system: TK-10; test: Growth inhibition of human TK10 cells assessed as cell growth at 10 uM incubated for 48 hrs by sulforhodamine B assay; type: functional; conditions: TK-10, 48 h, read-out: Activity
[23] = system: HOP-62; test: Growth inhibition of human HOP62 cells assessed as cell growth at 10 uM incubated for 48 hrs by sulforhodamine B assay; type: functional; conditions: HOP-62, 48 h, read-out: Activity
[24] = system: NCI-H322M; test: Growth inhibition of human NCI-H322M cells assessed as cell growth at 10 uM incubated for 48 hrs by sulforhodamine B assay; type: functional; conditions: read-out: Activity
[25] = system: MDA-MB-468; test: Growth inhibition of human MDA-MB-468 cells assessed as cell growth at 10 uM incubated for 48 hrs by sulforhodamine B assay; type: functional; conditions: MDA-MB-468, 48 h, read-out: Activity
[26] = system: UACC-257; test: Growth inhibition of human UACC257 cells assessed as cell growth at 10 uM incubated for 48 hrs by sulforhodamine B assay; type: functional; conditions: UACC-257, 48 h, read-out: Activity
[27] = Growth inhibition of human EKVX cells assessed as cell growth at 10 uM incubated for 48 hrs by sulforhodamine B assay; type: functional; conditions: read-out: Activity

For `O=c1c2ccc(Cl)cc2sc2c(Cl)nc3ccccc3c12`, the growth at 10 µM [1] was 101%, the growth at 10 µM [2] was 99.1% and the IC50 [3] was over 15 µM. For the same compound, the growth at 10 µM [4] was 110%, the growth at 10 µM [5] was 111% and the growth at 10 µM [6] was 101%. It also gave a growth at 10 µM [7] of 110%, a growth at 10 µM [8] of 89.7% and a growth at 10 µM [9] of 110%. The growth at 10 µM [10] was 103%, the growth at 10 µM [11] was 101% and the growth at 10 µM [12] was 90.5%. For the same compound, the growth at 10 µM [13] was 106%, the growth at 10 µM [14] was 102% and the growth at 10 µM [15] was 112%. For the same compound, the growth at 10 µM [16] was 105%, the growth at 10 µM [17] was 82.6% and the growth at 10 µM [18] was 90.3%. It also gave a growth at 10 µM [19] of 111%, a growth at 10 µM [20] of 91.6% and a growth at 10 µM [21] of 77.9%. The growth at 10 µM [22] was 109%, the growth at 10 µM [23] was 82% and the growth at 10 µM [24] was 100%. For the same compound, the growth at 10 µM [25] was 98.6% and the growth at 10 µM [26] was 104%.

Work on `O=C(O)c1c(Sc2ccc(Cl)cc2)c(O)nc2ccccc12` yielded a growth at 10 µM [1] of 112%, a growth at 10 µM [2] of 96.9% and an IC50 [3] of over 15 µM. It also gave a growth at 10 µM [4] of 99.6%, a growth at 10 µM [5] of 121% and a growth at 10 µM [6] of 102%. It also gave a growth at 10 µM [7] of 124%, a growth at 10 µM [8] of 102% and a growth at 10 µM [9] of 114%. For the same compound, the growth at 10 µM [10] was 104%, the growth at 10 µM [12] was 90.5% and the growth at 10 µM [14] was 104%. The growth at 10 µM [15] was 109%, the growth at 10 µM [16] was 104% and the growth at 10 µM [17] was 92%. The growth at 10 µM [18] was 99%, the growth at 10 µM [19] was 113% and the growth at 10 µM [27] was 89.5%. For the same compound, the growth at 10 µM [20] was 93.2%, the growth at 10 µM [21] was 82.2% and the growth at 10 µM [22] was 118%. It also gave a growth at 10 µM [23] of 116%, a growth at 10 µM [24] of 101% and a growth at 10 µM [25] of 105%. It also gave a growth at 10 µM [26] of 122%.
